Reference: US20150376172A1, “FLUORO-[1,3]OXAZINES AS BACE1 INHIBITORS” (HOFFMANN-LA ROCHE INC., priority 2013, published 2015)

Molecular target: T1, BACE1 (Homo sapiens, UniProt P56817)
T1 construct: endogenous in cells; host or cells: HEK293 APP cells
Assay: Cellular Aβ-lowering assay (Abeta 40 AlphaLISA)
Format: cell-based
Details: HEK293 APP cells; 18-20 hrs incubation; Aβ 40 in culture supernatants by AlphaLISA; read-out: BACE1 cell act. Aβ40 IC50
Description: Cellular Aβ-lowering assay:
The Abeta 40 AlphaLISA Assay can be used. The HEK293 APP cells were seeded in 96 well Microtiter plates in cell culture medium (Iscove's, plus 10% (v/v) fetal bovine serum, penicillin/streptomycin) to about 80% confluency and the compounds were added at a 3× concentration in ⅓ volume of culture medium (final DMSO concentration was kept at 1% v/v). After 18-20 hrs incubation at 37° C. and 5% CO2 in a humidified incubator, the culture supernatants were harvested for the determination of Aβ 40 concentrations using Perkin-Elmer Human Amyloid beta 1-40 (high specificity) Kit (Cat#AL275C).
In a Perkin-Elmer White Optiplate-384 (Cat#6007290), 2 ul culture supernatants were combined with 2 μl of a 10× AlphaLISA Anti-hAβAcceptor beads+Biotinylated Antibody Anti-Aβ1-40 Mix (50 μg/mL/5 nM). After 1 hour room temperature incubation, 16 μl of a 1.25× preparation of Streptavidin (SA) Donor beads (25 μg/mL) were added and incubated for 30 minutes in the Dark. Light Emission at 615 nm was then recorded using EnVision-Alpha Reader. Levels of Aβ 40 in the culture supernatants were calculated as percentage of maximum signal (cells treated with 1% DMSO without inhibitor). The IC50 values were calculated using the Excel XLfit software.

T1 sequence (P56817 46-501): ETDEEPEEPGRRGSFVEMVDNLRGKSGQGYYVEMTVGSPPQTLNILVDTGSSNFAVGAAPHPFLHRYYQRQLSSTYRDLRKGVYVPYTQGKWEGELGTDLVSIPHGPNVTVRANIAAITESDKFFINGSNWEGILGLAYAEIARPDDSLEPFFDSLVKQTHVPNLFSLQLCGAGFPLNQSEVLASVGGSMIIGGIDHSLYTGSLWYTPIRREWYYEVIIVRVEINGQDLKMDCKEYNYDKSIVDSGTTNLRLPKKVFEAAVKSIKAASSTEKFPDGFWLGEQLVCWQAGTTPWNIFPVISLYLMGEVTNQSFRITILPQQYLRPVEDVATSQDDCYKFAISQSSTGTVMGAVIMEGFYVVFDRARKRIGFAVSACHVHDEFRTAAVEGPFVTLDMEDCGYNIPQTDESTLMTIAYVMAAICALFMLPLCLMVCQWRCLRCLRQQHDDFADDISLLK

Structure (SMILES) | IC50
CC#Cc1cncc(-c2cc(Cl)c([C@]3(C)C[C@@H](C(F)(F)F)OC(N)=N3)s2)c1 [Example 30, (4S,6S)-4-(3-Chloro-5-(5-(prop-1-ynyl)pyridin-3-yl)thiophen-2-yl)-4-methyl-6-(trifluoromethyl)-5,6-dihydro-4H-1,3-oxazin-2-amine] | 620 nM
C[C@@]1(c2sc(-c3cncc(C#N)c3)cc2Cl)C[C@@H](C(F)(F)F)OC(N)=N1 [Example 31, 5-(5-((4S,6S)-2-Amino-4-methyl-6-(trifluoromethyl)-5,6-dihydro-4H-1,3-oxazin-4-yl)-4-chlorothiophen-2-yl)nicotinonitrile] | 340 nM
C[C@@]1(c2sc(-c3cncc(Cl)c3)cc2Cl)C[C@@H](C(F)(F)F)OC(N)=N1 [Example 32, (4S,6S)-4-(3-Chloro-5-(5-chloropyridin-3-yl)thiophen-2-yl)-4-methyl-6-(trifluoromethyl)-5,6-dihydro-4H-1,3-oxazin-2-amine] | 740 nM
C[C@@]1(c2sc(-c3cccc(C#N)c3)cc2Cl)C[C@@H](C(F)(F)F)OC(N)=N1 [Example 33, 3-(5-((4S,6S)-2-Amino-4-methyl-6-(trifluoromethyl)-5,6-dihydro-4H-1,3-oxazin-4-yl)-4-chlorothiophen-2-yl)benzonitrile] | 510 nM
C[C@@]1(c2cc(NC(=O)c3ccc(Cl)cn3)cs2)C[C@@H](C(F)(F)F)OC(N)=N1 [Example 34, N-(5-((4S,6S)-2-amino-4-methyl-6-(trifluoromethyl)-5,6-dihydro-4H-1,3-oxazin-4-yl)thiophen-3-yl)-5-chloropicolinamide] | 330 nM
C[C@@]1(c2cc(NC(=O)c3ccc(C#N)cn3)cs2)C[C@@H](C(F)(F)F)OC(N)=N1 [Example 35, N-(5-((4S,6S)-2-Amino-4-methyl-6-(trifluoromethyl)-5,6-dihydro-4H-1,3-oxazin-4-yl)thiophen-3-yl)-5-cyanopicolinamide] | 88 nM
C[C@@]1(c2cc(NC3CCc4cc(C#N)cnc43)ccc2F)C[C@@H](C(F)(F)F)OC(N)=N1 (stereo partly drawn) [Example 36, 7-(3-((4S,6S)-2-Amino-4-methyl-6-(trifluoromethyl)-5,6-dihydro-4H-1,3-oxazin-4-yl)-4-fluorophenylamino)-6,7-dihydro-5H-cyclopenta[b]pyridine-3-carbonitrile] | 33 nM
C[C@@]1(c2cccc(NC(=O)c3ccc(C#N)cn3)c2F)C[C@@H](C(F)(F)F)OC(N)=N1 [Example 37, N-(3-((4S,6S)-2-Amino-4-methyl-6-(trifluoromethyl)-5,6-dihydro-4H-1,3-oxazin-4-yl)-2-fluorophenyl)-5-cyanopicolinamide] | 140 nM
C[C@@]1(c2c(F)ccc(NC(=O)c3ccc(C#N)cn3)c2F)C[C@@H](C(F)(F)F)OC(N)=N1 [Example 38, N-(3-((4S,6S)-2-amino-4-methyl-6-(trifluoromethyl)-5,6-dihydro-4H-1,3-oxazin-4-yl)-2,4-difluorophenyl)-5-cyanopicolinamide] | 13 nM
C[C@@]1(c2cc(-c3nc4ccc(Cl)cc4o3)ccc2F)C[C@@H](C(F)(F)F)OC(N)=N1 [Example 39, (4S,6S)-4-(5-(6-Chlorobenzo[d]oxazol-2-yl)-2-fluorophenyl)-4-methyl-6-(trifluoromethyl)-5,6-dihydro-4H-1,3-oxazin-2-amine] | 530 nM
C[C@@]1(c2cc(-c3nnc(-c4ccc(Cl)cc4)o3)ccc2F)C[C@@H](C(F)(F)F)OC(N)=N1 [Example 40, (4S,6S)-4-(5-(5-(4-Chlorophenyl)-1,3,4-oxadiazol-2-yl)-2-fluorophenyl)-4-methyl-6-(trifluoromethyl)-5,6-dihydro-4H-1,3-oxazin-2-amine] | > 40000 nM
C[C@@]1(c2cc(-c3ccccc3)ccc2F)C[C@@H](C(F)(F)F)OC(N)=N1 [Example 41, (4S,6S)-4-(4-Fluorobiphenyl-3-yl)-4-methyl-6-(trifluoromethyl)-5,6-dihydro-4H-1,3-oxazin-2-amine] | 6420 nM

Continued, values first:

IC50 | Structure (SMILES)
2520 nM | C[C@@]1(c2cc(-c3cncnc3)cs2)C[C@@H](C(F)(F)F)OC(N)=N1 [Example 42, (4S,6S)-4-Methyl-4-(4-(pyrimidin-5-yl)thiophen-2-yl)-6-(trifluoromethyl)-5,6-dihydro-4H-1,3-oxazin-2-amine]
2020 nM | C[C@@]1(c2cc(CCc3ccc(C#N)cn3)ccc2F)C[C@@H](C(F)(F)F)OC(N)=N1 [Example 44, 6-(3-((4S,6S)-2-Amino-4-methyl-6-(trifluoromethyl)-5,6-dihydro-4H-1,3-oxazin-4-yl)-4-fluorophenethyl)nicotinonitrile]
1640 nM | NC1=N[C@](CF)(c2cc(-c3nc4ccc(Cl)cc4o3)ccc2F)C[C@@H](C(F)(F)F)O1 [Example 45, (4S,6S)-4-(5-(6-Chlorobenzo[d]oxazol-2-yl)-2-fluorophenyl)-4-(fluoromethyl)-6-(trifluoromethyl)-5,6-dihydro-4H-1,3-oxazin-2-amine]
450 nM | C[C@@]1(c2cc(C#Cc3ccc(C#N)nc3)ccc2F)C[C@@H](C(F)(F)F)OC(N)=N1 [Example 46, 5-((3-((4S,6S)-2-amino-4-methyl-6-(trifluoromethyl)-5,6-dihydro-4H-1,3-oxazin-4-yl)-4-fluorophenyl)ethynyl)picolinonitrile]
10600 nM | Cc1cc(-c2cncc(-c3ccc(F)c([C@]4(CF)C[C@@H](C(F)(F)F)OC(N)=N4)c3)c2)n[nH]1 [Example 47, (4S,6S)-4-(2-fluoro-5-(5-(5-methyl-1H-pyrazol-3-yl)pyridin-3-yl)phenyl)-4-(fluoromethyl)-6-(trifluoromethyl)-5,6-dihydro-4H-1,3-oxazin-2-amine]
2660 nM | C[C@@]1(c2cc(C#Cc3cncnc3)ccc2F)C[C@@H](C(F)(F)F)OC(N)=N1 [Example 50, (4S,6S)-4-(2-fluoro-5-(pyrimidin-5-ylethynyl)phenyl)-4-methyl-6-(trifluoromethyl)-5,6-dihydro-4H-1,3-oxazin-2-amine]
5650 nM | COc1ncc(C#Cc2ccc(F)c([C@]3(C)C[C@@H](C(F)(F)F)OC(N)=N3)c2)cn1 [Example 53, (4S,6S)-4-[2-fluoro-5-[2-(2-methoxypyrimidin-5-yl)ethynyl]phenyl]-4-methyl-6-(trifluoromethyl)-5,6-dihydro-1,3-oxazin-2-amine]
1360 nM | C[C@@]1(c2cc(C#Cc3cnc(C#N)nc3)ccc2F)C[C@@H](C(F)(F)F)OC(N)=N1 [Example 54, 5-[2-[3-[(4S,6S)-2-amino-4-methyl-6-(trifluoromethyl)-5,6-dihydro-1,3-oxazin-4-yl]-4-fluorophenyl]ethynyl]pyrimidine-2-carbonitrile]
1170 nM | C[C@@]1(c2cc(C#Cc3cncc(Cl)c3)ccc2F)C[C@@H](C(F)(F)F)OC(N)=N1 [Example 55, (4S,6S)-4-(5-((5-chloropyridin-3-yl)ethynyl)-2-fluorophenyl)-4-methyl-6-(trifluoromethyl)-5,6-dihydro-4H-1,3-oxazin-2-amine]
1650 nM | C[C@@]1(c2cc(C#Cc3cncc(C#N)c3)ccc2F)C[C@@H](C(F)(F)F)OC(N)=N1 [Example 56, 5-[2-[3-[(4S,6S)-2-amino-4-methyl-6-(trifluoromethyl)-5,6-dihydro-1,3-oxazin-4-yl]-4-fluorophenyl]ethynyl]pyridine-3-carbonitrile]
520 nM | COc1cc(C#N)cnc1C#Cc1ccc(F)c([C@]2(CF)C[C@@H](C(F)(F)F)OC(N)=N2)c1 [Example 57, 6-((3-((4S,6S)-2-Amino-4-(fluoromethyl)-6-(trifluoromethyl)-5,6-dihydro-4H-1,3-oxazin-4-yl)-4-fluorophenyl)ethynyl)-5-methoxynicotinonitrile]
25700 nM | CCn1cc(C#Cc2ccc(F)c([C@]3(CF)C[C@@H](C(F)(F)F)OC(N)=N3)c2)cn1 [Example 58, (4S,6S)-4-(5-((1-Ethyl-1H-pyrazol-4-yl)ethynyl)-2-fluorophenyl)-4-(fluoromethyl)-6-(trifluoromethyl)-5,6-dihydro-4H-1,3-oxazin-2-amine]
790 nM | N#Cc1cnc(C#Cc2ccc(F)c([C@]3(CF)C[C@@H](C(F)(F)F)OC(N)=N3)c2)c(Cl)c1 [Example 59, 6-((3-((4S,6S)-2-Amino-4-(fluoromethyl)-6-(trifluoromethyl)-5,6-dihydro-4H-1,3-oxazin-4-yl)-4-fluorophenyl)ethynyl)-5-chloronicotinonitrile]
650 nM | N#Cc1ccc(C#Cc2ccc(F)c([C@]3(CF)C[C@@H](C(F)(F)F)OC(N)=N3)c2)cc1 [Example 60, 4-((3-((4S,6S)-2-Amino-4-(fluoromethyl)-6-(trifluoromethyl)-5,6-dihydro-4H-1,3-oxazin-4-yl)-4-fluorophenyl)ethynyl)benzonitrile]
3490 nM | NC1=N[C@](CF)(c2cc(C#Cc3cncc(Cl)c3)ccc2F)C[C@@H](C(F)(F)F)O1 [Example 61, (4S,6S)-4-(5-((5-Chloropyridin-3-yl)ethynyl)-2-fluorophenyl)-4-(fluoromethyl)-6-(trifluoromethyl)-5,6-dihydro-4H-1,3-oxazin-2-amine]
400 nM | N#Cc1ccc(C#Cc2ccc(F)c([C@]3(CF)C[C@@H](C(F)(F)F)OC(N)=N3)c2)nc1 [Example 62, 6-((3-((4S,6S)-2-Amino-4-(fluoromethyl)-6-(trifluoromethyl)-5,6-dihydro-4H-1,3-oxazin-4-yl)-4-fluorophenyl)ethynyl)nicotinonitrile]
